# Measured values published in doi:10.1101/2023.02.27.530254, “Large library docking for cannabinoid-1 receptor agonists with reduced side effects” (bioRxiv, 2024).
# Key:
# CB1 = biological target: T1, CB1 (Rattus norvegicus, UniProt P20272); test: Radioligand competition binding with [3H]-CP-55,940, rat brain membranes; conditions: for Emax: maximal radioligand displacement, read-out: rCB1 binding Emax [SEM]; for Ki: rCB1 binding Ki [95% CI], [3H]-CP-55,940 competition, rat brain membranes
# T1 construct: membrane preparations from rat brain (source of CB1); tissue Bioivt RAT00BRAINMZN; host or cells: rat brain
# Experimental: The results were analyzed using nonlinear regression to determine the IC50 and Ki values for each ligand (Prism by GraphPad Software, Inc., San Diego, CA). The Ki values are expressed as the mean of two to three experiments each performed in triplicate.
# hCB1 [1] = biological target: T2, hCB1 (Homo sapiens, UniProt P21554); test: Tango β-arrestin-2 recruitment assay, HTLA cells; format: cell-based; design: expressed in transfected cells
# Experimental: (§1) The Tango β-arrestin-2 recruitment assays were performed as described. In brief, HTLA cells were transiently transfected with human CB1R or CB2R Tango DNA construct overnight in DMEM supplemented with 10 % FBS, 100 μg ml−1 streptomycin and 100 U ml−1 penicillin. The transfected cells were then plated into poly-L-lysine-coated 384-well white clear-bottom cell culture plates in DMEM containing 1% dialysed FBS at a density of 10,000–15,000 cells per well. After incubation for 6 h, the plates were added with drug solutions prepared in DMEM containing 1% dialysed FBS for overnight incubation. On the day of assay, medium and drug solutions were removed and 20 μl per well of BrightGlo reagent (Promega) was added. The plates were further incubated for 20 min at room temperature and counted using the Wallac TriLux Microbeta counter (PerkinElmer). The results were analysed using GraphPad Prism 9.1. Each experiment was performed in triplicate and functional […] values were determined from the mean of three independent experiments.
# hCB1 [2] = biological target: T2, hCB1; test: bioSens-All ebBRET effector biosensor signaling profiling, HEK293; format: cell-based; design: host or cells: HEK293 (HEK293SL clone), transient
# Experimental: ebBRET-based effector membrane translocation biosensor assays were conducted at Domain Therapeutics NA Inc. (Montreal, QC, Canada) as previously described. […] HEK293 cells were maintained in Dulbecco’s Modified Eagle Medium (DMEM) (Wisent) supplemented with 1% penicillin- streptomycin (Wisent) and 10% (or 2 % for transfection) fetal bovine serum (Wisent) at 37°C with 5% CO2. All biosensor-coding plasmids and related information are the property of Domain Therapeutics NA Inc. The total amount of transfected DNA was adjusted and kept constant at 1 μg per mL of cell culture to be transfected using salmon sperm DNA (Invitrogen) as ‘carrier’ DNA, PEI (polyethylenimine 25 kDa linear, PolyScience) and DNA (3:1 ml PEI:mg DNA ratio) were first diluted separately in 150 mM NaCl then mixed and incubated for at least 20 minutes at room temperature to allow for the formation of DNA/PEI complexes. During the incubation, HEK293 cells were detached, counted, and re-suspended in maintenance medium to a 350,000 cells per mL density. At the end of the incubation period, the DNA/PEI mixture was added to the cells. Cells were finally distributed in 96-well plates (White Opaque 96-well /Microplates, Greiner) at a density of 35,000 cells per well. Forty-eight hours post-transfection, medium was aspirated and replaced with 100 μl of Hank’s Balanced Salt Solution buffer (HBSS) (Wisent) per well using 450-Select TS Biotek plate washer. After 60 min incubation in this medium, 10 μL of 10 μM e-Coelenterazine Prolume Purple (Methoxy e-CTZ) (Nanolight) was added to each well for a final concentration of 1 μM immediately followed by addition of increasing concentrations of the test compounds to each well using the HP D300 digital dispenser (Tecan). All compounds were assayed at 22 concentrations with each biosensor after a 10-minute room temperature incubation period. […] All BRET ratios were standardized using the universal BRET (uBRET) equation: uBRET=BRETratio-A/B-A×10,000 where A is the BRET ratio obtained from transfection of negative control and B is the BRET ratio obtained from transfection of positive control. […] The data were analyzed using the four-parameter logistic non-linear regression model in GraphPad Prism 9.1 and data were presented as means ± CIs of 1–4 independent experiments.
# The SEM was calculated for the logEmax/EC50 ratios using the following equation: SEM=σ/n where σ is the standard deviation, and n is the number of experiments.
# hCB2 [3] = biological target: T3, hCB2 (Homo sapiens, UniProt P34972); test: Tango β-arrestin-2 recruitment assay, HTLA cells; format: cell-based; design: expressed in transfected cells; host or cells: HTLA (transient); conditions: for Emax: HTLA, read-out: hCB2 Tango ß-arrestin recruitment Emax [95% CI]
# Experimental: as §1
# hCB2 [4] = biological target: T3, hCB2; test: TRUPATH BRET2 GoA dissociation assay, HEK293T; format: cell-based; design: expressed in transfected cells; host or cells: HEK293T (transient); conditions: HEK-293T, read-out: hCB2 BRET2 + GoA Emax [95% CI]
# Experimental: […]. GoA dissociation BRET2 assays were performed as previously described with minor modifications. In brief, HEK293T cells were co-transfected overnight with human CB2 receptor, GαoA-Rluc, Gβ3, and Gγ9-GFP2 constructs. After 18–24 hours, the transfected cells were seeded into poly-L-lysine-coated 384-well white clear-bottom cell culture plates at a density of 15,000–20,000 cells and incubated with DMEM containing 1% dialyzed FBS, 100 U mL−1 of penicillin and 100 μg ml−1 of streptomycin for another 24 hours. The next day, the medium was aspirated and washed once with 20 μL of assay buffer (1× HBSS, 20 mM HEPES, 0.1% BSA, pH 7.4). Then, 20 μL of drug buffer containing coelenterazine 400a (Nanolight Technology) at 5 μM final concentration was added to each well and incubated for 5 minutes, followed by the addition of 10 μL of 3X designated drug buffer for 5 minutes. Then, 10 μL of 4X final concentrations of ligands were added for 5 minutes. […] BRET ratio was computed as the ratio of the GFP2 emission to RLuc8 emission. […] Each experiment was performed in triplicate and functional IC50 values were determined from the mean of four independent experiments.
# hCB1 [5] = biological target: T2, hCB1; test: Lance Ultra cAMP accumulation assay (inhibition of forskolin-stimulated cAMP), CHO cells; format: cell-based; design: expressed in transfected cells; conditions: hCB1-expressing cells
# Experimental: The inhibition of forskolin-stimulated cAMP accumulation assays was carried out using PerkinElmer’s Lance Ultra cAMP kit following the manufacturer’s protocol. In brief, CHO cells stably expressing human CB1R were harvested by incubation with Versene (ThermoFisher Scientific, Waltham, MA) for 10 min, washed once with Hank’s Balanced Salt Solution, and resuspended in stimulation buffer at ~200 cells/μL density. The ligands at eight different concentrations (0.001–10,000 nM) in stimulation buffer (5 μL) containing forskolin (2 μM final concentration) were added to a 384-well plate followed by the cell suspension (5 μL; ~1000 cells/well). The plate was incubated for 30 min at room temperature. Eu-cAMP tracer (5 μL) and Ulight-anti-cAMP (5 μL) working solutions were then added to each well, and the plate was incubated at room temperature for an additional 60 min. Results were measured on a Perkin-Elmer EnVision plate reader. The EC50 values were determined by nonlinear regression analysis using Prism software (GraphPad Software, Inc., San Diego, CA) and are expressed as the mean of three experiments, each performed in triplicate.
# hCB1 [6] = biological target: T2, hCB1; test: Cerep HTRF cAMP inhibition assay, hCB1 CHO-K1 cells; format: cell-based
# Experimental: The hCB1 CHO-K1 cells are suspended in HBSS buffer (Invitrogen) complemented with 20 mM HEPES (pH 7.4), then distributed in microplates at a density of 5.103 cells/well in the presence of either of the following: HBSS (basal control), the reference agonist at 30 nM (stimulated control) or the test compounds. […] Following 30 min incubation at 37°C, the cells are lysed, and the fluorescence acceptor (D2-labeled cAMP) and fluorescence donor (anti-cAMP antibody labeled with europium cryptate) are added. […] Each measurement was done in triplicate.
# hCB1 [7] = biological target: T2, hCB1; test: DiscoverX PathHunter β-arrestin-2 recruitment assay; format: cell-based; conditions: hCB1 DiscoverX ß-arrestin recruitment EC50 [95% CI]
# Experimental: PathHunter cell lines (CHO-K1 lineage expressing hCB1) were expanded from freezer stocks according to standard procedures. Cells were seeded in a total volume of 20 μL into white walled, 384-well microplates and incubated at 37°C for the appropriate time prior to testing. For agonist determination, cells were incubated with sample to induce response. Intermediate dilution of sample stocks was performed to generate 5X sample in assay buffer. 5 μL of 5X sample was added to cells and incubated at 37°C or room temperature for 90 to 180 minutes. Vehicle concentration was 1%. […] Microplates were read following signal generation with a PerkinElmer EnvisionTM instrument for chemiluminescent signal detection. Compound activity was analyzed using CBIS data analysis suite (ChemInnovation, CA).
# The data were analyzed in GraphPad Prism 9.1 using “dose–response-stimulation log(agonist) versus response (four parameters)” and data were presented as EC50 or pEC50 ± CIs of one independent experiment in duplicate.
# hCB2 [8] = biological target: T3, hCB2; test: Cerep cAMP assay; format: cell-based
# CB1R = biological target: T4, CB1R (Homo sapiens, UniProt P21554, C107A/C139A/C149A/C238A/C355A/C382A/C386A/C415A/C431A/C449A/C98A/R336C); test: Bimane fluorescence of TM6-labeled minimal cysteine CB1R; format: biochemical; conditions: 10 μM ligand; apo 459 nm
# T4 construct: N-terminal FLAG tag and C-terminal histidine tag was added to human full-length CB1; FLAG (N); histidine tag (C); made in house; host or cells: Spodoptera frugiperda Sf9 (baculovirus)
# Experimental: A minimal cysteine version of CB1R was generated[73] where all the cysteine residues (except C256 and C264) were mutated to alanine. […] Excess label was removed using size exclusion chromatography on a Superdex 200 10/300 Increase column in 20 mM HEPES pH 7.5, 100 mM NaCl and 0.01% MNG/0.001% CHS. Bimane-labeled CB1R at […] was incubated with ligands (10 μM) for one hour at room temperature. Fluorescence data was collected at room temperature in a 150 μL cuvette with a FluorEssence v3.8 software on a Fluorolog instrument (Horiba) in photon-counting mode. Bimane fluorescence was measured by excitation at 370 nm with excitation and emission bandwidth passes of 4 nm. The emission spectra were recorded from 410 to 510 nm with 1 nm increment and 0.1 s integration time.
# [9] = HEK293, read-out: hCB1 Gi1 Emax [95% CI]
# [10] = HEK293, read-out: hCB1 GoB Emax [95% CI]
# [11] = HEK293, read-out: hCB1 Gz Emax [95% CI]
# T3 sequence (P34972 whole entry): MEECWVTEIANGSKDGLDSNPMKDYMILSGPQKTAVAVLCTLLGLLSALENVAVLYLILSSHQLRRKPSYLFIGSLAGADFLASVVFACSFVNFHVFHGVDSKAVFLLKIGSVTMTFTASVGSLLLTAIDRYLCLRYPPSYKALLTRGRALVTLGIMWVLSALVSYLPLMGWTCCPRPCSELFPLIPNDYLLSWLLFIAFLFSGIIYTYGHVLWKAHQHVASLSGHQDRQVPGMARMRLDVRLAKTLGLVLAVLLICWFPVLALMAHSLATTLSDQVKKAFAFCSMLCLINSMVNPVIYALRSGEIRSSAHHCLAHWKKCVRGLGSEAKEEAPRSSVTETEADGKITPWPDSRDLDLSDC
# T1 sequence (P20272 whole entry): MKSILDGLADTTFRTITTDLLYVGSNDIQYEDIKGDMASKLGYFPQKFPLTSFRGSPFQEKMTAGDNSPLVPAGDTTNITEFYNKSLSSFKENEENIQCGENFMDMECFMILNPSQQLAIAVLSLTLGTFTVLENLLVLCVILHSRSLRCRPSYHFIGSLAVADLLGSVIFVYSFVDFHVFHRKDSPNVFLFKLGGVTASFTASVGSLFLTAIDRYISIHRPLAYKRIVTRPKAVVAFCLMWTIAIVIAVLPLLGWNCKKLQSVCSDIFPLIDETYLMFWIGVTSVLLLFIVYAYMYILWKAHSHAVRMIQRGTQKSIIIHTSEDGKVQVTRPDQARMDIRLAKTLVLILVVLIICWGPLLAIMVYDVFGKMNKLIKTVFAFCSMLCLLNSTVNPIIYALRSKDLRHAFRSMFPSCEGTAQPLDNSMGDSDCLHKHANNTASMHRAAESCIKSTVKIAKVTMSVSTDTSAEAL
# T2 sequence (P21554 whole entry): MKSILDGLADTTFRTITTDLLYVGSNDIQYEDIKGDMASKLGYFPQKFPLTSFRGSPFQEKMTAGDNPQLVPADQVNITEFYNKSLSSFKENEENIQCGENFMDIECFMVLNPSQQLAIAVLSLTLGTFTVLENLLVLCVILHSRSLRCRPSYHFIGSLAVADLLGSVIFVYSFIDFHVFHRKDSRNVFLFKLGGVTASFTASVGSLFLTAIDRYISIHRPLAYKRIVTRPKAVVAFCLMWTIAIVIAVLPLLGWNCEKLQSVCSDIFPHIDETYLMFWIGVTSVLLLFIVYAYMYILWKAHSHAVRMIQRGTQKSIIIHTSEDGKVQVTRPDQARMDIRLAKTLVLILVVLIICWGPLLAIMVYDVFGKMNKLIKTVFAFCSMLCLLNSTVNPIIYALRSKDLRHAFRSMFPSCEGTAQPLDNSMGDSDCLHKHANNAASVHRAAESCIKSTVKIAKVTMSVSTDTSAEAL
# T4 sequence (P21554 whole entry C98A/C107A/C139A/C149A/C238A/R336C/C355A/C382A/C386A/C415A/C431A/C449A): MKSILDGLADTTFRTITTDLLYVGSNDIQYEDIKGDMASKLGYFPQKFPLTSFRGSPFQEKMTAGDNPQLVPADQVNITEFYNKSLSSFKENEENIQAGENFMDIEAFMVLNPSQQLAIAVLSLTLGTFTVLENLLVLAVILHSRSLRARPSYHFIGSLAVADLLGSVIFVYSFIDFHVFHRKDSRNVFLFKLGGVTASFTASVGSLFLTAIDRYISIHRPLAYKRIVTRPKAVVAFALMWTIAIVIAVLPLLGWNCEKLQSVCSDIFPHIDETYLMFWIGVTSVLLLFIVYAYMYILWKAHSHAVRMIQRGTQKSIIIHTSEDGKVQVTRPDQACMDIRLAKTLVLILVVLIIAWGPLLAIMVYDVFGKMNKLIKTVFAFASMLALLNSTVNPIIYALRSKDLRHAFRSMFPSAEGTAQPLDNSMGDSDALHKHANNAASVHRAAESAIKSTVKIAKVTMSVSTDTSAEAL
Structure (SMILES),Emax (CB1) [%],Ki (CB1) [nM],EC50 (hCB1 [1]) [µM],Emax (hCB1 [2]; [9]) [%],Emax (hCB1 [2]; [10]) [%],Emax (hCB1 [2]; [11]) [%],EC50 (hCB1 [2]; hCB1 Gi1 EC50 [95% CI]) [nM],EC50 (hCB1 [2]; hCB1 GoB EC50 [95% CI]) [nM],EC50 (hCB1 [2]; hCB1 GoB pEC50 [95% CI]) [nM],EC50 (hCB1 [2]; hCB1 Gz EC50 [95% CI]) [nM],EC50 (hCB2 [3]) [nM],Emax (hCB2 [3]) [%],EC50 (hCB1 [2]; hCB1 Gi1 pEC50 [95% CI]) [nM],functional efficacy (decrease in forskolin stimulated cAMP) (hCB1 [5]),other results
COC(=O)[C@@H]1[C@@H]2CCC[C@@H]2CN1C(=O)c1cc(C)n(-c2cccc(Cl)c2)n1 [‘10010],101,1200,> 10,74,71,144,814,801,794,1400,556,18,–,–,"% [3H]-CP-55,940 displacement (mean) from single point screen (CB1; screens at 10 μM (white cells), 1 μM (orange) or 300 nM (green), cell colours not visible): 33.86%"
COC(=O)[C@@H]1[C@@H]2CCC[C@@H]2CN1C(=O)c1cc(C)n(-c2cccc(C(F)(F)F)c2)n1 [‘6439],106,251,> 10,95,100,162,–,60.9,63.1,339,338,14,63.1,–,Emax (hCB2 [4]): 81%
COC(=O)C(NC(=O)c1cc(C)n(-c2cccc(F)c2)n1)c1cccs1 (stereo not shown) [‘51486],–,731,–,73,74,130,–,711,631,1120,–,–,–,modest agonism,"LE (CB1; ligand efficiency): 0.32; LLE (CB1; lipophilic ligand efficiency): 3.1; EC50 (hCB1 [2]; hCB1 Gi1 EC50 [95% CI], Gi1 sensor): 849 nM"
Cc1cc(C(=O)N2CC3(CCC3)C2C2CCCO2)nn1-c1cccc(C(F)(F)F)c1 (stereo not shown) [‘3737],112,173,> 10,–,–,–,–,–,–,–,1500,9,–,–,"EC50 (hCB1 [6]): 326 nM; Emax (hCB1 [6]; CHO-K1, read-out: hCB1 Cerep cAMP Emax [95% CI]): 99%; EC50 (hCB1 [7]): > 10 µM; EC50 (hCB2 [8]): 4.3 nM; Emax (hCB2 [8]; read-out: hCB2 Cerep cAMP Emax [95% CI]): 45%"
Cn1nc(-c2nnc(C(C)(C)Oc3ccc(Cl)cc3)o2)c2ccccc2c1=O [‘0450],–,691,–,49,36,–,56300,2510,–,–,–,–,50100,modest agonism,–
"COC(=O)[C@@H](NC(=O)c1nn(Cc2ccc(F)cc2)c2ccccc12)C(C)(C)C [MDMB-fubinaca, reference compound]",–,–,–,–,–,–,–,–,–,–,–,–,–,–,bimane spectrum λmax (CB1R): 465 nm
